Laboratory results taken from publication PMC5784245, “An Optimized Synthetic-Bioinformatic Natural Product Antibiotic Sterilizes Multidrug-Resistant Acinetobacter baumannii-Infected Wounds” (mSphere, 2018).
In brackets after ≈: the same amount, converted by molar mass. Non-standard residues stand in square brackets, D forms with d. Residues, ends and D or L forms follow the SMILES beside them. dOrn = NCCC[C@@H](N)C(=O)O; Orn = NCCC[C@H](N)C(=O)O

Legend:
Acinetobacter baumannii = assay type: cell-based; conditions: 24 h
Procedure: (§1) Wang resins were purchased from Matrix Innovation. Reagents for peptide synthesis were purchased from P3 BioSystems, Chempep, and Chem-Impex International. The fluorescent dyes DiBAC4 and SYTOX were purchased from Thermo Fisher Scientific, and media were prepared from premixed powders: brain heart infusion for S. sobrinus and L. rhamnosus (Hardy Diagnostics), yeast extract-peptone-dextrose for C. albicans, lysogeny broth (LB) for all other bacteria (BD Biosciences), and McCoy’s 5A medium with 10% fetal bovine serum for HT-29 cells (American Type Culture Collection). All other chemicals and consumables were purchased from Sigma-Aldrich and VWR International. Paenimucillin 4F for in vivo studies was purchased from Ontores Biotechnologies as a high-performance liquid chromatography (HPLC)-purified peptide and used as is. Dye assays were performed in a Gen5 microtiter plate reader (Biotek Instruments). Liquid chromatography-mass spectrometry (LC-MS) analyses were performed by using an Acquity system (Waters Corporation).
(§2) Standard susceptibility assays were performed in LB medium in 96-well microtiter plates to determine the MIC by the broth microdilution method in accordance with protocols recommended by Clinical and Laboratory Standards Institute ([35]). Cytotoxicity was assessed using human HT-29 cells based on a similar broth microdilution method ([36]). All assays were performed in duplicate. For the cytotoxicity assay, 5,000 HT-29 cells per well were seeded into a microtiter plate and cultured for 24 h at 37°C in a 5% CO2 atmosphere. Peptides were supplemented at concentrations ranging from 128 to 0.5 μg/ml, and the cells were incubated for another 20 h. Growth media were removed, 3-(4,5-dimethylthiazol-2-yl)-2,5-diphenyltetrazolium bromide (MTT) was added to all wells (220 μl per well at 0.5 mg/ml), the mixture was incubated for 4 h, and then the media were discarded. Cell viability was determined by visual inspection.

Bacillus subtilis = assay type: cell-based; conditions: 24 h
Procedure: as §1, §2

Enterobacter cloacae = assay type: cell-based; conditions: 24 h
Procedure: as §1, §2

Enterococcus faecalis = assay type: cell-based; conditions: 24 h
Procedure: as §1, §2

Enterococcus faecium = assay type: cell-based; conditions: 24 h
Procedure: as §1, §2

Klebsiella pneumoniae = assay type: cell-based; conditions: 24 h
Procedure: as §1, §2

Lactobacillus rhamnosus = assay type: cell-based; conditions: 24 h
Procedure: as §1, §2

Pseudomonas aeruginosa = assay type: cell-based; conditions: 24 h
Procedure: as §1, §2

Staphylococcus aureus = assay type: cell-based; conditions: 24 h
Procedure: as §1, §2

Streptococcus sobrinus = assay type: cell-based; conditions: 24 h
Procedure: as §1, §2

[1] = test system: A. baumannii clinical isolate 1788; assay type: cell-based, Acinetobacter baumannii; conditions: clinical isolate 1788, 24 h
Procedure: as §1, §2

[2] = test system: A. baumannii clinical isolate 1790; assay type: cell-based, Acinetobacter baumannii; conditions: clinical isolate 1790, 24 h
Procedure: as §1, §2

[3] = test system: A. baumannii clinical isolate 1791; assay type: cell-based, Acinetobacter baumannii; conditions: clinical isolate 1791, 24 h
Procedure: as §1, §2

[4] = test system: A. baumannii clinical isolate 1795; assay type: cell-based, Acinetobacter baumannii; conditions: clinical isolate 1795, 24 h
Procedure: as §1, §2

[5] = test system: A. baumannii clinical isolate 1797; assay type: cell-based, Acinetobacter baumannii; conditions: clinical isolate 1797, 24 h
Procedure: as §1, §2

[6] = test system: A. baumannii clinical isolate S3; assay type: cell-based, Acinetobacter baumannii; conditions: clinical isolate S3, 24 h
Procedure: as §1, §2

[7] = test system: A. baumannii clinical isolate S5; assay type: cell-based, Acinetobacter baumannii; conditions: clinical isolate S5, 24 h
Procedure: as §1, §2

C. albicans = test: Toxicity assessment, MIC against C. albicans; assay type: cell-based, Candida albicans; conditions: Brady lab strain; yeast extract-peptone-dextrose; surrogate for cytotoxicity; duplicate
Procedure: as §1, with “Liquid chromatography-mass spectrometry (LC-MS) analyses were performed by using an Acquity system (Waters Corporation).” left out
Standard susceptibility assays were performed in LB medium in 96-well microtiter plates to determine the MIC by the broth microdilution method in accordance with protocols recommended by Clinical and Laboratory Standards Institute ([35]). Cytotoxicity was assessed using human HT-29 cells based on a similar broth microdilution method ([36]). […] Cell viability was determined by visual inspection.

[8] = test system: MDR A. baumannii strain AB5075; test: microbe, parasite or virus in culture; assay type: cell-based, Acinetobacter baumannii; conditions: MDR strain AB5075, 24 h
Procedure: as §2

[9] = test system: MDR A. baumannii strain AB5075; test: Rat cutaneous wound model, efficacy; assay type: in vivo, Sprague-Dawley rats; conditions: rat wound infected with AB5075 (500 CFU), topical 10 mg/ml twice daily
Procedure: (§3) The rat cutaneous wound model was used as described previously ([21]). Protocols for animal studies were approved by the Rutgers University Institutional Animal Care and Use Committee. All animals were humanely euthanized at the study endpoint by following the AVMA Guidelines for the Euthanasia of Animals. Immunocompetent Sprague-Dawley female rats (~200 g) were anesthetized by intraperitoneal injection of 100 mg/kg ketamine plus 10 mg/kg xylazine. Using a 1.0-cm-diameter disposable biopsy punch, two symmetrical wounds were created on the dorsum of each rat. A circular gauze dressing 8 mm in diameter was saturated overnight with either vehicle or 4F at 10 mg/ml in sterile centrifuge tubes. To assess tolerability, the rats were weighed daily and observed for wound healing, behavior changes, and visible adverse drug effects for 5 days. To assess efficacy, A. baumannii strain AB5075 was grown overnight and the culture was diluted to provide the challenge inoculum (500 CFU) as 50 μl of bacterial suspension in 0.9% (wt/vol) NaCl. A circular gauze dressing 8 mm in diameter was saturated overnight with vehicle, tetracycline, or 4F at 10 mg/ml in sterile centrifuge tubes. These saturated dressings were topically applied to the wound site with sterile forceps twice daily, starting at 30 min postinoculation, for 6 days. Rats were observed twice daily for morbidity and possible signs of acute toxicity. Two and four independent cutaneous wounds were tested in tolerability and efficacy assessments, respectively.

[10] = Rat cutaneous wound model, tolerability; assay type: in vivo, Sprague-Dawley rats; conditions: uninfected wounded rats, topical 10 mg/ml
Procedure: as §3, with “Rats were observed twice daily for morbidity and possible signs of acute toxicity. Two and four independent cutaneous wounds were tested in tolerability and efficacy assessments, respectively.” left out

A. baumannii [11] = test: Membrane depolarization assay (DiBAC4); assay type: cell-based, Acinetobacter baumannii; conditions: 4× MIC (8 μg/ml); DiBAC4 fluorescence at endpoint of assay; polymyxin at 4× MIC
Procedure: In a membrane depolarization assay ([31]), A. baumannii colonies were scraped off an agar plate and suspended in LB to optical density at 600 nm (OD600) of 0.5 to 0.6. The resulting suspension (1.8 ml) was mixed 9:1 with DiBAC4 (20 μg/ml), incubated at room temperature for 5 min, and monitored at 2-s intervals (excitation/emission, 492/515 nm) for 2 min. Various solutions were added (10 μl) while the fluorescence signal was continually being monitored. Paenimucillin C was tested at final concentrations of 2× and 4× its MIC, and polymyxin B and DMSO were used as positive and negative controls, respectively. The treated cultures were then monitored at 2-s intervals for another 5 min. Pore formation assays ([32]) were performed in the same way, except that Triton X-100 was used as the positive control at a final concentration of 0.25% (wt/vol).

A. baumannii [12] = test: Pore formation assay (SYTOX); assay type: cell-based, Acinetobacter baumannii; conditions: 4× MIC (8 μg/ml), SYTOX fluorescence

CC[C@@H](C)[C@@H](NC(=O)[C@@H](NC(=O)[C@H](CO)NC(=O)[C@H](Cc1ccccc1)NC(=O)[C@@H](CCCN)NC(=O)[C@H](CO)NC(=O)[C@H](CO)NC(=O)[C@@H](Cc1ccccc1)NC(=O)[C@@H](CO)NC(=O)[C@H](NC(=O)[C@@H](CCCN)NC(=O)[C@@H](Cc1ccccc1)NC(C)=O)[C@H](C)CC)C(C)C)C(=O)N[C@@H](CCCN)C(=O)O [4F, paenimucillin C] (Ac-[dF][dOrn][dI][dS][dF]SS[dOrn]FSV[dI][Orn]-OH)
MIC Acinetobacter baumannii (Acinetobacter baumannii): 2 µg/mL (≈ 1.32 µM)
MIC Bacillus subtilis (Bacillus subtilis): 16 µg/mL (≈ 10.5 µM)
MIC Enterobacter cloacae (Enterobacter cloacae): 32 µg/mL (≈ 21.1 µM)
MIC Enterococcus faecalis (Enterococcus faecalis): 64 µg/mL (≈ 42.2 µM)
MIC Enterococcus faecium (Enterococcus faecium): 32 µg/mL (≈ 21.1 µM)
MIC Klebsiella pneumoniae (Klebsiella pneumoniae): 4 µg/mL (≈ 2.64 µM)
MIC Lactobacillus rhamnosus (Lactobacillus rhamnosus): 16 µg/mL (≈ 10.5 µM)
MIC Pseudomonas aeruginosa (Pseudomonas aeruginosa): 128 µg/mL (≈ 84.3 µM)
MIC Staphylococcus aureus (Staphylococcus aureus): 32 µg/mL (≈ 21.1 µM)
MIC Streptococcus sobrinus (Streptococcus sobrinus): 16 µg/mL (≈ 10.5 µM)
MIC for A. baumannii clinical isolate 1788 [1]: 4 µg/mL
MIC for A. baumannii clinical isolate 1790 [2]: 4 µg/mL
MIC for A. baumannii clinical isolate 1791 [3]: 2 µg/mL
MIC for A. baumannii clinical isolate 1795 [4]: 4 µg/mL
MIC for A. baumannii clinical isolate 1797 [5]: 4 µg/mL
MIC for A. baumannii clinical isolate S3 [6]: 4 µg/mL
MIC for A. baumannii clinical isolate S5 [7]: 4 µg/mL
MIC, toxicity assessment, C. albicans (C. albicans): 128 µg/mL (≈ 84.3 µM)
in vitro MIC, A. baumannii AB5075 [8]: 1 µg/mL
wound sterilization after 1 day [9]: completely sterilized the wounds
bacterial burden throughout the 5-day study ([9]; P < 0.00001): 0 CFU
weight loss ([10]; 5 days, within normal range due to analgesia, two wounds): ≤ 5%
acute toxicity and change in behavior ([10]; observed 5 days): Neither acute toxicity nor any change in behavior was seen
membrane depolarization relative to polymyxin (A. baumannii [11]): ~ 25%
pore formation relative to Triton X-100 (A. baumannii [12]): ~ 75%
